Experimental data taken from paper PMC8665362, “Identification of small-molecule allosteric modulators that act as enhancers/disrupters of rhodopsin oligomerization” (The Journal of Biological Chemistry, 2021).

Assays:
[1] = target: T1, rhodopsin (isorhodopsin) dimerization (Homo sapiens, UniProt P08100); assay: rhodopsin β-gal fragment complementation assay in U2OS opsin-EA/opsin-PK cells; assay type: cell-based; design: expressed in transfected cells; settings: U2OS opsin-EA/PK cells regenerated with 9-cis-retinal; triplicates; read from Fig. 3A,D
T1 sequence (P08100 whole entry, the tested form may be a part): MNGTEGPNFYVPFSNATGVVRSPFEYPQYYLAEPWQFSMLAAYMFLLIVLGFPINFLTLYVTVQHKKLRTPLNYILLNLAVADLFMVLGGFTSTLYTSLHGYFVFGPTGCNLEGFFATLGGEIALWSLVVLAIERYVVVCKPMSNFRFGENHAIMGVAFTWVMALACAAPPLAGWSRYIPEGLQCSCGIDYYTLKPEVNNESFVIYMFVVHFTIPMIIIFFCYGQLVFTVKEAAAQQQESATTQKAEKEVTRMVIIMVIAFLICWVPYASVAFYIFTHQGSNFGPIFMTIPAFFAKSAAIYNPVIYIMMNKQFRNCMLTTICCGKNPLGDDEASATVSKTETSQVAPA
Source text: (§1) To identify small molecules that target rhodopsin dimerization, a cell-based high-throughput screening (HTS) assay was used to screen a diverse library of 50,000 compounds from Life Chemicals. The human osteosarcoma (U2OS) stable cell line was used, which expresses opsin fused with complimentary subunits of β-galactosidase (β-gal), namely, the enzyme acceptor large β-gal subunit (EA) and the enzyme donor, small subunit of β-gal (PK). Upon rhodopsin self-association in vitro, a competent β-gal was formed and chemiluminescent signal was generated in the presence of β-gal substrate (Fig. 1A). For further validation, the β-gal activity assay was used to counter-screen and rule out false positives, affecting the activity of β-gal without affecting rhodopsin (Fig. 1B) ([34]). In an orthogonal assay, rhodopsin dimerization was assessed using a bioluminescence resonance energy transfer (BRET) assay with human embryonic kidney 293 cells expressing opsin fused with Renilla luciferase and opsin fused with Venus (Fig. 1C) ([35], [36]). To form functional visual pigment, opsin-fused proteins were regenerated with 9-cis-retinal to form so-called isorhodopsin ([37]). We chose 9-cis-retinal over photoreceptor-endogenous 11-cis-retinal because of its availability and the prohibitive cost for HTS assays with the native chromophore. Rhodopsin and isorhodopsin have similar biochemical and spectral properties (see ([38])).
All 50,000 compounds were screened, using the β-gal complementation assay at a final concentration of 60 μM with a Z′ factor of 0.75 ± 0.01 and a signal-to-background (S/B) ratio of 123 ± 14.4 (Fig. 2A) ([39]). The activity scores were calculated according to the following equation: (RLU(compound)−RLU(positivecontrol))/(RLU(negativecontrol)−RLU(positivecontrol))×100.
The positive control comprised U2OS cells transfected with both opsin-EA and opsin-PK, mimicking dimer formation (with a 0% score value), and the negative control comprised U2OS cells transfected with opsin-EA only, mimicking disrupted dimer formation (with a 100% score value).
In this study, cultured U2OS opsin-EA and opsin-PK cells were diluted to 2 × 10^5 cells/ml in the culture medium containing 10% fetal bovine serum (Thermo Fisher Scientific) and 1% penicillin-streptomycin 10,000 U/ml (Thermo Fisher Scientific). Cell diluent of 20 μl/well was dispensed into a white ViewPlate-384 (PerkinElmer) using the EL406 plate dispenser (BioTek). As a control, we used U2OS opsin-EA–only expressing cells as a positive control for dimerization disruption generating a minimal luminescence signal, as previously described ([41]). The plates were cultured overnight at 37 °C in 5% CO2, and the next day, under a dim red light, cells were treated with 5 μl/well of 9-cis-retinal (Sigma-Aldrich) at 7.5 μM final concentration. Plates were covered with aluminum foil and cultured overnight at 37 °C in 5% CO2. Next, cells were treated with each of the 50,000 library compounds (Life Chemicals Inc) at a final concentration of 57.6 μM, using a JANUS automated workstation (PerkinElmer), followed by incubation overnight at 37 °C, covered with aluminum foil. The next day, cells were treated with Galacton-Star chemiluminescent substrate (23 μl/well; Thermo Fisher Scientific). The plates were covered with foil and incubated at 20 °C for 2 h, followed by luminescence reading with the EnSpire multimode plate reader (PerkinElmer). Measurements were evaluated with the lowest value being defined as −50% (dimer enhancers) and the highest value as 100% (dimer disrupters) in the compound dataset. All experiments were done under red-light conditions. Identified compounds were retested in triplicates ranging from 180 μM down to 2.4 nM concentrations.

[2] = target: T1, rhodopsin (isorhodopsin) dimerization; assay: rhodopsin dimerization BRET assay in HEK293 opsin-Rluc/opsin-Venus cells; assay type: cell-based; design: expressed in transfected cells; host or cells: HEK293 (human embryonic kidney 293) opsin-Rluc / opsin-Venus cell lines; settings: HEK293 opsin-Rluc/opsin-Venus cells regenerated with 9-cis-retinal; triplicates; read from Fig. 3B,E
Source text: as §1
Identified hits from the β-gal complementation assay were subjected to the previously developed BRET assay, using human embryonic kidney 293 opsin–Renilla luciferase and opsin-Venus cell lines ([37]). Cultured cells were diluted to 2 × 10^5 cells/ml in the medium containing 10% fetal bovine serum (Thermo Fisher Scientific) and 1% penicillin-streptomycin (10,000 U/ml; Thermo Fisher Scientific), and 20 μl/well of the cell diluent was dispensed into a white ViewPlate-384 (PerkinElmer). Cells were cultured overnight at 37 °C in 5% CO2, and under a dim red light, cells were treated with 9-cis-retinal at 7.5 μM final concentration. The next day, cells were treated with the identified hit compounds from the β-gal complementation assay at 180 μM down to 2.4 nM concentrations, and 1 μM final concentration of TM5 peptide ([…]-NH2; EZBiolab) serving as the control. On the following day, the culture medium was aspirated and replaced with 90 μl/well of PBS containing pivaloyloxymethyl acetoxycoelenterazine h (Dalton Research Molecules) at 600 μM concentration followed by incubation at 20 °C for 40 min ([35]). Dual luminescence readings at 480 and 530 nm were performed using a SpectraMax L plate reader with the BRET1 filter set (Molecular Devices).

EC50 [1]: 2300 nM
EC50 [2]: 2340 nM
SMILES: O=C(CSc1nnc(NC(=O)Cc2ccc(F)cc2)s1)NO [#1]
